Experimental data as given in US20090318468A1, “PYRAZOLE COMPOUNDS 436” (AstraZeneca AB, priority 2008, published 2009).
Several values for one entry are separate records, joined by “and”; a condition that tells them apart may be missing. Equal entries are not always repeated.

Assays:
FGFR1 = FGFR1 (Homo sapiens, UniProt P11362); assay: FGFR1 Kinase Assay - Caliper Echo Dosing; format: biochemical; conditions: 408 uM ATP, separate test occasions listed, read-out: IC50 (inhibition of FGFR1 kinase activity)
Sequence of FGFR1 (P11362 22-822): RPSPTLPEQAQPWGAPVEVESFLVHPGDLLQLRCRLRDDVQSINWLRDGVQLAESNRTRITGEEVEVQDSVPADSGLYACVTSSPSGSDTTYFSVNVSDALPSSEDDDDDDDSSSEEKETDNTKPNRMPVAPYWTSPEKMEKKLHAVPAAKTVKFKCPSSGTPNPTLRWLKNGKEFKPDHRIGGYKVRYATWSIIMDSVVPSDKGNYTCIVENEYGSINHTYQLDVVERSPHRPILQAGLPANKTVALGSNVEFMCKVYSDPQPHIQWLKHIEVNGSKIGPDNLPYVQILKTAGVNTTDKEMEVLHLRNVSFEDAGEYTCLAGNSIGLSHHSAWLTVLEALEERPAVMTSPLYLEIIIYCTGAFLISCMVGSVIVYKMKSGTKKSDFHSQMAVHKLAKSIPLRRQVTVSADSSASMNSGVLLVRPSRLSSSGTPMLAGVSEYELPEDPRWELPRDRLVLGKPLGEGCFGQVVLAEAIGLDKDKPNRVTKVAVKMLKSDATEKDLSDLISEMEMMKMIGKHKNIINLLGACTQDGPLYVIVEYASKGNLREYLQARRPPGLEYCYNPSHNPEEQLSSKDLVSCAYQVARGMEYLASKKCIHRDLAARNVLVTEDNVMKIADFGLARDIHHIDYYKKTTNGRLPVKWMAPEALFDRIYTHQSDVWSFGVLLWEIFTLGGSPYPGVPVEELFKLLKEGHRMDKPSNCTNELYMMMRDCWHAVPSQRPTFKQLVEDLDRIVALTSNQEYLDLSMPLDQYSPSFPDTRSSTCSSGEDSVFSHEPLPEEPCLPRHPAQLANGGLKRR
Description: FGFR1 Kinase Assay—Caliper Echo Dosing
To determine inhibition of FGFR1 activity, kinase assays were conducted using Caliper technology.
Kinase activity assays were performed in Greiner 384-well low volume plates, with a total reaction volume of 12 ul per well. Final concentration of FGFR1 active kinase in each reaction well was 7.2 nM. The substrate for each assay was a custom peptide with fluorescent tag (13 amino acids in length, […] with the fluorescene tag on the first K).
Compounds were dispensed directly in to assay plates using a Labcyte Echo 550 acoustic droplet ejection unit. […]
Assay plates were incubated at room temperature for 1.5 h, before the reaction was stopped with the addition of buffer [comprising: 100 mM HEPES—pH 7.5, 0.033% Brij-35 (Sigma Catalogue No. B4184), 0.22% Caliper Coating Reagent #3 (Caliper Life Sciences Catalogue No. 760050), 88 mM EDTA, 5% DMSO]. Stopped assay plates were then read using the Caliper LabChip® LC3000 (which uses microfludics to measure a shift in mobility between fluorescent labelled peptide and the FGFR1 kinase—phosphorylated form of this peptide).
In the assay, compounds were tested at a range of concentrations. […] Percentage inhibition at 1 uM, as expressed herein, is a calculated value based on the curve fit that was generated experimentally. […] This value is calculated using a standard curve fitting software package Origin™. […]

FGFR4 = FGFR4 (Homo sapiens, UniProt P22455); assay: FGFR4 Kinase Assay - Caliper; format: biochemical; conditions: 30 μM ATP, separate test occasions listed, read-out: IC50 (inhibition of FGFR4 kinase activity)
Sequence of FGFR4 (P22455 22-802): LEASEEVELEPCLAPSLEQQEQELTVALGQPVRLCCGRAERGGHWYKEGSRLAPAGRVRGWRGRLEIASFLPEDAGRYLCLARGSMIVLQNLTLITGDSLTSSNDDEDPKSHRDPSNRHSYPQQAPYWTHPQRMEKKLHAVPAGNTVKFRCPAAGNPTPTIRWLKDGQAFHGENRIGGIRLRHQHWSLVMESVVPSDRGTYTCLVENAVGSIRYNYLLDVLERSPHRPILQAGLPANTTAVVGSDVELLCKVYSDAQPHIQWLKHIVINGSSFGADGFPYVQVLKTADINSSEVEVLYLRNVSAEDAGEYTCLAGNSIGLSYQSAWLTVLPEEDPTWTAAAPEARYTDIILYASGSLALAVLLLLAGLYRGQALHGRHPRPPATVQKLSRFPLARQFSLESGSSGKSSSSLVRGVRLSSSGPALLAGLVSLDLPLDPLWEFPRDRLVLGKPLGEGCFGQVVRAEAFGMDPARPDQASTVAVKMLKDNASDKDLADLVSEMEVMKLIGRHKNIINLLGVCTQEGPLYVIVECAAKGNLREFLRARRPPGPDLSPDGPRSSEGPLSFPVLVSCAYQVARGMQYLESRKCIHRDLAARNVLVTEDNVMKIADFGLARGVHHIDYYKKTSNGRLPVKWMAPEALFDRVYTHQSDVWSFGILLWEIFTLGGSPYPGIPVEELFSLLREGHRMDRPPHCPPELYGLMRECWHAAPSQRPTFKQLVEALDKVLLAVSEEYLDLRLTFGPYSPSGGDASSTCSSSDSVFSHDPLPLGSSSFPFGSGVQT
Description: FGFR4 Kinase Assay—Caliper
To determine inhibition of FGFR4 activity, kinase assays were conducted using Caliper technology. FGFR4 enzyme was used (8 μM, Cat. No. PR4380B, Invitrogen). Kinase activity assays were performed in Greiner 384-well low volume plates, with a total reaction volume of 12 μL per well. The final concentration of FGFR4 active kinase in each reaction well was 25 nM. The substrate for each assay was a custom peptide with fluorescent tag (13 amino acids in length, 5FAM-[…]—CONH2) the sequence of which was specific for FGFR4 kinase.
Compounds were serially diluted in 5% (v/v) DMSO, before being added to assay plates. The Enzyme (at 25 nM (final)) and Substrate (at 1.5 μM (final)) were added separately to the compound plates, in reaction buffer (comprising: 100 mM HEPES—pH 7.5, 0.004% Triton, 1 mM DTT (final), 10 mM MnCl2 (final), 30 μM ATP (final)) resulting in a final DMSO concentration in the reaction mix of 0.8%.
Assay plates were incubated at RT for 2 hours, before the reaction was stopped with the addition of buffer (comprising: 100 mM HEPES—pH7.5, 0.033% Brij-35, 0.22% Caliper Coating Reagent #3, 40 mM EDTA, 5% DMSO). Stopped assay plates were then read using the Caliper LabChip™ LC3000 (which uses microfludics to measure a shift in mobility between fluorescent labelled peptide and the FGFR4 kinase—phosphorylated form of this peptide). […]

Row | IC50 (FGFR1) | IC50 (FGFR4) | SMILES
1 | 1.1 nM and 0.64 nM and 0.76 nM | 22 nM and 16 nM (2×) | COc1cc(CCc2cc(NC(=O)c3ccc(N4CCN(C)[C@H](C)C4)cc3)[nH]n2)cc(OC)c1 [Example 1b, (R)—N-(3-(3,5-Dimethoxyphenethyl)-1H-pyrazol-5-yl)-4-(3,4-dimethylpiperazin-1-yl)benzamide]
2 | 0.74 nM | – | COc1cc(CCc2cc(NC(=O)c3ccc(N4CCN(C)[C@@H](C)C4)cc3)[nH]n2)cc(OC)c1 [Example 1a, (S)—N-(3-(3,5-Dimethoxyphenethyl)-1H-pyrazol-5-yl)-4-(3,4-dimethylpiperazin-1-yl)benzamide]
